# From patent EP4818312A2
# Settings: from C=C[C@@H]1OC(c2ccc(OC)cc2)O[C@]1(C)CC[C@H](CC(=O)O[C@H](/C(C)=C/I)[C@@H](C)C=C)O[Si](C)(C)C(C)(C)C; rcm bond; Hoveyda-Grubbs 2nd generation; toluene; 6.52 mM; 110.0 °C; 5.0 h
structure (smiles),measurement,value
COc1ccc(C2O[C@H]3C=C[C@H](C)[C@@H](/C(C)=C/I)OC(=O)C[C@H](O[Si](C)(C)C(C)(C)C)CC[C@@]3(C)O2)cc1 (stereo partly shown),"ring closure, yield of all isomers",50%
